Assay results published in patent US5523320A, “N-methyldeacetylcolchiceinamide derivatives” (Ohgen Research Laboratories, Ltd., priority 1993, dated 1996).
≈ marks a conversion by molar mass, not a printed value. Where “and” joins values, the source holds several entries; their conditions need not be identical. Identical values can stand only once.

Tests used:
[1] = literature / background; cited from earlier work
cancer cells = conditions: literature; cited from earlier work
[2] = tested on: adriamycin-resistant mouse leukemic cells P388/ADR; experiment: In vitro cancer cell proliferation inhibition (Trypan Blue living cell count, 2 days culture); assay type: cell-based; conditions: three separate experiments
Procedure: (§1) Test example 1: In vitro cancer cell proliferation inhibiting text
(§2) Mouse leukemic cells p388/S and adriamycin-resistant mouse leukemic cells P388/ADR subculturally transplanted in the abdominal cavity of mice were taken out together with the asites therefrom, respectively, and after washing, suspended in RPMI 1640 media (each containing 10% fetal bovine serum and 10 μM 2-mercaptoethanol) to 2×10^5 cells/ml, respectively. 0.5 vol. % each of test solutions (solutions of the compound of the later-described in Example 1 in dimethylsulfoxide) were added to portions of each of these cell suspensions, respectively; and the mixtures were separately put into a 24-well culture plate and subjected to culture for 2 days in a 5% carbon dioxide culturing vessel. A 0.5% Trypan Blue solution was added to each of the cell culture broths in the same amount, and the 50% proliferation inhibitory concentration (IC50) of the compound of Example 1 was determined by counting the number of the cells not stained as living cells under a microscope.

[3] = tested on: mouse leukemic cells P388/S; experiment: as above; assay type: cell-based; conditions: three separate experiments
Procedure: as §1, §2

CDF male mice = experiment: Acute toxicity test (intraperitoneal, 10 days observation); assay type: in vivo, mouse; conditions: i.p.
From the text: Test example 2: Acute toxicity test

COc1cc2c(c(OC)c1OC)-c1ccc(OC)c(=O)cc1C(NC(C)=O)CC2 (stereo not shown) [colchicine]
toxicity [1]: strong toxicity | pharmacological actions on cancer cells (cancer cells): has pharmacological actions on cancer cells, gout, etc.

CNc1ccc2c(cc1=O)C(NC(=O)C1COC(C)(C)O1)CCc1cc(OC)c(OC)c(OC)c1-2 (stereo not shown) [Example 1, N-(O,O-isopropylideneglyceroyl)-N-methyldeacetylcolchiceinamide]
IC50 ([2]; Mus musculus, P388/ADR, 48 h, read-out: Cytotoxicity IC50 (50% proliferation inhibitory concentration)): 9.2 ng/mL (≈ 0.019 µM) | Cytotoxicity IC50 (50% proliferation inhibitory concentration) ([2]; 2880 min): 11.0 ng/mL and 11.1 ng/mL | IC50 ([3]; Mus musculus, 48 h, read-out: Cytotoxicity IC50 (50% proliferation inhibitory concentration)): 3.2 ng/mL (≈ 0.0066 µM) | Cytotoxicity IC50 (50% proliferation inhibitory concentration) ([3]; 2880 min): 4.2 ng/mL and 4.6 ng/mL | acute toxicity symptoms: diarrhea or constipation (CDF male mice; groups of high dose): cases where diarrhea or constipation arose were observed | acute toxicity symptoms: lie of hair (CDF male mice; on and after one day after administration): the lie of hair got worse | acute toxicity symptoms: walking problems and paralysis (CDF male mice; survival cases in the 47 mg/kg administration group): walking problems as in the right leg and paralysis of one side of the body | body weight change (CDF male mice; up to 2 to 4 days after administration and thereafter): tended to decrease up to 2 to 4 days after administration, but thereafter increased gradually
